From patent US12612410B2 (CHILDREN'S HOSPITAL MEDICAL CENTER, priority 2020, dated 2026)

These molecules were tested on MOLM14 (D835Y) cells (assay: Combination drug screening with Venetoclax in MOLM14 (D835Y) cells). Conditions: 10 × 10 dataset.
Assay type: cell-based
Parameters: key to Sum Excess HSA: negative = synergy, positive = antagonism with Venetoclax; relative score
Description: Combination drug therapy has the potential to produce enhanced effects with lower side effects not obtained using either agent alone, or beyond the additive effect of the different concentrations of the two different agents. To determine whether enhanced effects are observed in different drug combinations in the setting of FLT3 resistance, combination drug screening was performed as previously described (Mathews-Griner, L. A. et al., Proc. Nat. Acad. Sci., 2014, 111:2439-2454; Lin, G. L. et al., Sci. Trans. Med., 2019, 11:eaaw0064). Briefly, 10 nL of compounds were acoustically dispensed into 1536-well white polystyrene tissue culture-treated plates with an Echo 550 acoustic liquid handler (Labcyte). MOLM14 (D835Y) Cells were then added to compound-containing plates at a density of 500-cells/well in 5 μL of medium. A 10-point custom concentration range was used for all listed drugs. Plates were incubated for 48 hours at standard incubator conditions covered by a stainless steel gasketed lid to prevent evaporation. 48 h post compound addition, 3 μL of Cell Titer Glo (Promega) were added to each well and plates were incubated at room temperature for 15 minutes with the stainless-steel lid in place. Luminescence readings were taken using a Viewlux imager (PerkinElmer) with a 2 second exposure time per plate.
The sum excess HSA scores for Compounds 25, 31, 35, 50, 51, 80, 82, 97, 118, and 119 in Table 28 are used herein to quantitate drug interactions for enhanced pharmacological effects in the MOLM14 (D835Y) cell line. This is a FLT3-ITD cell line that harbors a FLT3 resistance mutation in the tyrosine kinase domain at position 835 (D835Y). More information on excess HSA scores can be found in Vlot, Anna H. C. et al., Drug Discovery Today, 2019, 24(12):2286-2298. […] However, different methodologies may yield different numerical scores, and different definitions of what constitutes a deviation from mere additivity vs true drug synergy. Table 28 summarizes the combination results of Compounds 25, 31, 35, 50, 51, 80, 82, 97, 118, and 119 with Venetoclax. A large negative sum excess HSA score indicates profound synergism with Venetoclax, whereas a positive excess HSA score indicates antagonism with Venetoclax in certain drug combinations.
The degree to which combination therapy has to potential to produce enhanced effects with lower side effects not obtained using either agent alone, or beyond the additive effect of the different concentrations of the two different agents depends on the nature of the drugs used in the combination, and the specific doses/concentrations at which they are ultimately used in the therapeutic regimen. A negative excess sum HSA score illustrates that the drug combination is better than either drug alone (at the concentrations being studied), and the sum excess HSA score is a measurement of the overall deviation from additivity that is observed across the entire matrix of concentrations studied. […] However, the utility in certain drug combinations vs others should not be distinguished based on cutoffs between excess sum HSA scores, because the score itself is only a relative indicator that is completely dependent on experimental design and is not an absolute number. Furthermore, the concept of what constitutes clinically meaningful drug synergy is something that is still being debated, not only between pharmacologists and physicians, but amongst pharmacologists themselves. The data in Table 28 illustrate that the nature of the combined effect is dependent on the characteristics of each individual compound, as not every compound produced a synergistic interaction in combination with Venetoclax.

Structure (SMILES) | Interaction with Venetoclax
FC(F)c1cn2c(-c3cccc(N[C@H]4CNCC[C@@H]4F)n3)cnc2cn1 [Compound 25, 6-(6-(difluoromethyl)imidazo[1,2-a]pyrazin-3-yl)-N-((3S,4S)-4-fluoropiperidin-3-yl)pyridin-2-amine] | Synergistic
CC(C)(O)c1cn2c(-c3nc(N[C@H]4CNCC[C@@H]4F)c(F)cc3F)cnc2cn1 [Compound 35, 2-(3-(3,5-difluoro-6-(((3S,4S)-4-fluoropiperidin-3-yl)amino)pyridin-2-yl)imidazo[1,2-a]pyrazin-6-yl)propan-2-ol] | Antagonistic

Same assay, conditions: combination with Venetoclax, 10 × 10 dataset, 48 hours

Structure (SMILES) | Sum Excess HSA
CC(O)(c1cn2c(-c3cccc(N[C@H]4CNCC[C@@H]4F)n3)cnc2cn1)C(F)(F)F (single isomer, unassigned) [Compound 80] | −261.7
CC(O)(c1cn2c(-c3cccc(N[C@H]4CNCC[C@@H]4F)n3)cnc2cn1)C(F)(F)F (single isomer, unassigned) [Compound 82] | −155.8
FC(F)c1cn2c(-c3cccc(N[C@H]4CNCC[C@@H]4F)n3)cnc2cn1 [Compound 25, 6-(6-(difluoromethyl)imidazo[1,2-a]pyrazin-3-yl)-N-((3S,4S)-4-fluoropiperidin-3-yl)pyridin-2-amine] | −834.6
CC(C)(O)c1cn2c(-c3cccc(N[C@H]4CNCC[C@@H]4F)n3)cnc2cn1 [Compound 31, 2-(3-(6-(((3S,4S)-4-fluoropiperidin-3-yl)amino)pyridin-2-yl)imidazo[1,2-a]pyrazin-6-yl)propan-2-ol] | −150.3956
CC(C)(O)c1cn2c(-c3nc(N[C@H]4CNCC[C@@H]4F)c(F)cc3F)cnc2cn1 [Compound 35, 2-(3-(3,5-difluoro-6-(((3S,4S)-4-fluoropiperidin-3-yl)amino)pyridin-2-yl)imidazo[1,2-a]pyrazin-6-yl)propan-2-ol] | 386.4
F[C@H]1CNC[C@@H]1Nc1cccc(-c2cnc3cnc(C4CC4)cn23)n1 [Compound 50, 6-(6-cyclopropylimidazo[1,2-a]pyrazin-3-yl)-N-((3S,4S)-4-fluoropyrrolidin-3-yl)pyridin-2-amine] | −552
F[C@H]1CCNC[C@@H]1Nc1cccc(-c2cnc3cnc(C4CC4)cn23)n1 [Compound 51, 6-(6-cyclopropylimidazo[1,2-a]pyrazin-3-yl)-N-((3S,4S)-4-fluoropiperidin-3-yl)pyridin-2-amine] | −644.5
O=S1(=O)CCCN1c1cn2c(-c3cccc(N[C@H]4CNCC[C@@H]4F)n3)cnc2cn1 [Compound 97, 2-(3-(6-(((3S,4S)-4-fluoropiperidin-3-yl)amino)pyridin-2-yl)imidazo[1,2-a]pyrazin-6-yl)isothiazolidine 1,1-dioxide] | −171.7
O=C1NCCN1c1cn2c(-c3cccc(N[C@H]4CNCC[C@@H]4F)n3)cnc2cn1 [Compound 118, 1-(3-(6-(((3S,4S)-4-fluoropiperidin-3-yl)amino)pyridin-2-yl)imidazo[1,2-a]pyrazin-6-yl)imidazolidin-2-one] | −550.9
O=C1CCCN1c1cn2c(-c3cccc(N[C@H]4CNCC[C@@H]4F)n3)cnc2cn1 [Compound 119, 1-(3-(6-(((3S,4S)-4-fluoropiperidin-3-yl)amino)pyridin-2-yl)imidazo[1,2-a]pyrazin-6-yl)pyrrolidin-2-one] | −762
